Tests used:
[1] = system: Sephadex induced lung edema (lung); experiment: Unwanted systemic effect by orally absorbed glucocorticosteroid, Sephadex induced lung edema; assay type: in vivo, Sprague Dawley rat; conditions: for ED50: po, read-out: ED50 (p.o. administration), lung: required glucocorticosteroid dose to reduce the edema by 50%; for ED50 / ED50 (p.o. administration), lung: required glucocorticosteroid dose to reduce the edema by 50%: rat, p.o. 2 h before Sephadex (5 mg/kg), lung lobes weighed 20 h later, relative to Sephadex control group; for dose required to inhibit lung edema (ED50) by oral administration relative to dose needed by local application to the lung (lung selectivity): ratio oral ED50 / local lung ED50, rat
Method: B. Test model for unwanted systemic effect by orally absorbed glucocorticosteroid
Sprague Dawley rats (250 g) were slightly anaesthetized with Ephrane and after that the GCS test preparation in a volume of 0,5 ml/kg was given orally. Two hours later a suspension of Sephadex (5 mg/kg in a volume of 1 ml/kg) was instilled in the trachea well above the bifurcation so that the suspension reached both the left and the right lung lobes. Twenty hours later, the rats were killed and the lung lobes were weighed. Control groups got saline instead of glucocorticosteroid preparation and saline instead of Sephadex suspension to determine the weight of non-drug treated Sephadex edema and the normal weight.

[2] = system: Sephadex induced lung edema (left lung lobe); experiment: Local antiinflammatory activity on airway mucosa (left lung lobe), Sephadex induced lung edema, local instillation; assay type: in vivo, Sprague Dawley rat; conditions: rat; for ED50 (left lung administration), left lung lobe: required glucocorticosteroid dose to reduce the edema by 50% / ED50: left lung instillation 2 h before Sephadex (5 mg/kg), left lung lobe weighed 20 h later, relative to Sephadex control group; for ED50: read-out: ED50 (left lung administration), left lung lobe: required glucocorticosteroid dose to reduce the edema by 50%
Method: A. Test model for desired local antiinflammatory activity on airway mucosa (left lung lobe)
Sprague Dawley rats (250 g) were slightly anaesthetized with Ephrane and the glucocorticosteroid test preparation (suspended in saline) in a volume of 0.5 ml/kg was instilled into just the left lung lobe. Two hours later a suspension of Sephadex (5 mg/kg in a volume of 1 ml/kg) was instilled under slight anaesthesia in the trachea well above the bifurcation so that the suspension reached both the left and right lung lobes. Twenty hours later the rats were killed and the left lung lobes dissected out and weighed. Control groups got saline instead of glucocorticosteroid preparation and saline instead of Sephadex suspension to determine the weight of non-drug treated Sephadex edema and the normal lung weight.

Row | Structure (SMILES) | ED50 [1] | ED50 (p.o. administration), lung: required glucocorticosteroid dose to reduce the edema by 50% [1] | dose required to inhibit lung edema (ED50) by oral administration relative to dose needed by local application to the lung (lung selectivity) [1] | ED50 (left lung administration), left lung lobe: required glucocorticosteroid dose to reduce the edema by 50% [2] | ED50 [2] | lung selectivity compared to the selected prior art compound (budesonide) ([1]; in words, oral vs local lung ED50, rat) | local antiinflammatory activity compared with budesonide ([2]; in words, left lung administration)
1 | CCCC1O[C@@H]2C[C@H]3[C@@H]4CCC5=CC(=O)C=C[C@]5(C)[C@H]4[C@@H](O)C[C@]3(C)[C@]2(C(=O)CO)O1 (stereo partly drawn) [Budesonide, reference compound] | 4 µmol/kg | 4000 nmol/kg | 13 times | 300 nmol/kg | 0.3 µmol/kg |  | 
2 | CCC[C@@H]1O[C@@H]2C[C@H]3[C@@H]4C[C@H](F)C5=CC(=O)CC[C@]5(C)[C@@]4(F)[C@@H](O)C[C@]3(C)[C@]2(C(=O)CO)O1 [Example 6, (22R)-16α,17α-butylidenedioxy-6α,9α-difluoro-11β,21-dihydroxypregn-4-ene-3,20-dione] | 0.32 µmol/kg | 320 nmol/kg | 32 times | 10 nmol/kg | 0.01 µmol/kg | higher lung selectivity | much higher local antiinflammatory activity than budesonide

— patent US5939409A, “Processes for the production of anti-inflammatory steroids” (priority 1991, dated 1999)
